# Results reported in US20040224995A1 (University of North Texas Health Science Center at Fort …, priority 2003, published 2004).
# Tests used:
# [1] = test system: HT-22 cells; assay: HT-22 cell viability during glutamate exposure (calcein AM assay); format: cell-based; details: for neuroprotective effect of prostaglandins against glutamate toxicity: added 24 h before glutamate (15 mM), viability 15 h later
# Source text: Although not wanting to be bound by theory, the toxicity of glutamate in HT-22 (32) and C6 glioma (33) cell lines is mediated through oxidative stress. HT-22 cells lack ionotropic N-methyl-D-aspartate (“NMDA”) glutamate receptors, and the glutamate-induced cell death appears to occur via a slow onset oxidative stress (32,34,35). Glutamate blocks cystine uptake by inhibiting the glutamate/cystine antiporter in both HT-22 (32) and C6 glioma (33) cell lines. Since cysteine is required for glutathione (“GSH”) synthesis, the intracellular concentration of GSH decreases as a consequence. BSO depletes intracellular glutathione by inhibiting γ-glutamylcysteine synthetase, the rate-limiting enzyme in glutathione synthesis (33). […] Troglitazone further protected HT-22 (FIG. 14) and RGC-5 (FIG. 15) against BSO. The cell viability was taken at time points around about 14 to 24 hours post-insult time. In some of the experiments, the viability of cells was determined using 2.5 μM calcein AM assay in phosphate-buffered saline (PBS 1×). After 25 minutes of incubation, live cells were distinguished by the presence of intracellular esterase activity, which cleaves the calcein AM dye, producing a bright green fluorescence, as shown in FIG. 22. Viability was measured in Relative Fluorescent Units (“RFU”), and expressed as percentage of vehicle-treated control values.
# 15d-PGJ2 and two TZD's (e.g. troglitazone and ciglitazone) were tested for their ability to protect HT-22 cells against glutamate toxicity. […] HT-22 cells were treated with 15-dPGJ2 twenty-four hours prior to a glutamate insult (15 mM). […] The data of FIG. 24 was quantified using the calcein AM assay (see FIG. 22). Results are expressed in % survival of the control (non-glutamate-treated) cultures. DMSO received the vehicle only for 15d-PGJ2. Shown are mean±SEM for 6. The asterisk (“*”) indicates p<0.05 vs. respective control.
# In order to conduct these experiments, the following compounds: PGA1; PGA2; PGJ2; Δ^12PGJ2; and 15d-PGJ2 were ordered from Biomol, Plymouth Meeting, Pa. HT-22, an immortalized mouse hippocampal cell line, C6 rat glioma, RGC-5 retinal ganglion cells were used. Cells were grown to confluence in DMEM media, and supplemented with 10% charcoal/dextran-treated fetal bovine serum (“FBS”), and […] gentamycin at 37° C. under 95% air, 5% CO2. HT-22, C6, and RGC-5 cells were plated at a density of 50,000, 35,000, and 10,000 cells/ml, respectively, in 96-well plates. Wells were pre-treated with cyclopentenone PGs at various times prior to being subjected to glutamate, hydrogen peroxide (H2O2), or BSO insults.
# The WY-14643, Ciglitazone, Troglitazone, 9-cis retinoic acid, and 15d-PGJ2 compounds were purchased from Biomol (Plymouth Meeting, Pa.). L-165041 and L-783483 were kindly provided by Merck Laboratories. The cell lines used were HT-22, an immortalized mouse hippocampal cell line, and SK—N—SH, a human neuroblastoma cell line. The HT-22 cells were obtained from David Schubert (Salk Institute, San Diego, Calif.). The HT-22 line was originally selected from HT-4 cells based on glutamate sensitivity. HT-4 cells were immortalized from primary hippocampal neurons using a temperature-sensitive SV-40 T antigen (Morimoto and Koshland, 1990). SK—N—SH were obtained from ATCC (Manassas, Va.). HT-22 and SK—N—SH cells were grown to confluence in DMEM and RPMI-1640 media, respectively, and supplemented with 10% charcoal/dextran-treated fetal bovine serum (FBS), and 5 mg/ml gentamycin at 37° C. under 95% air, 5% CO2. HT-22 cells were plated at a density of 50,000 cells/ml (5,000 cells/well), and SK—N—SH were plated at a density of 120,000 to 150,000 cells/ml (12,000 to 15,000 cells/well) in 96-well plates. In most studies, wells were pre-treated with PPAR ligands over a wide dose range at various times prior to being subjected to either glutamate, hydrogen peroxide (H2O2), or serum deprivation insults. In some studies, the insults were applied prior to the addition of the PPAR ligand. […]
# [2] = test system: PPARγ; details: Berger et al., 1999; cited from earlier work
# [3] = target: T1, PPAR-β (Homo sapiens, UniProt Q03181); details: Berger et al., 1999; read-out: EC50 for activation of PPAR-β; cited from earlier work
# T1 sequence (Q03181 1-441): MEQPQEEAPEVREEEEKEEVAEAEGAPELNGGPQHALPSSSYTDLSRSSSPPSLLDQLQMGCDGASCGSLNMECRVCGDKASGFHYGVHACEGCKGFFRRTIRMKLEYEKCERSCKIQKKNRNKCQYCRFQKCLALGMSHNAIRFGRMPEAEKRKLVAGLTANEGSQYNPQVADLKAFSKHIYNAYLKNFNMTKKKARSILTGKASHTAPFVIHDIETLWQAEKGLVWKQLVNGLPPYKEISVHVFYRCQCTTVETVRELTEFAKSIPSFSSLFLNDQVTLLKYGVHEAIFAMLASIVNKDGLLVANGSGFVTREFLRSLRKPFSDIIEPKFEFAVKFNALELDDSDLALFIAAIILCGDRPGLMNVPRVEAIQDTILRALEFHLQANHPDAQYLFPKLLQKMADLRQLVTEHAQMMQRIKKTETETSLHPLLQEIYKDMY
# [4] = test system: PPAR-γ; details: cited from earlier work
# [5] = test system: infarct after MCA occlusion; details: intraventricular, 660 ng, 30 min before MCA occlusion; Satoh et al.; cited from earlier work
# [6] = test system: PPAR alpha; details: Issemann and Green, 1990; read-out: EC50 for activation of PPAR alpha; cited from earlier work
smiles,measurement,setting,value
CCCc1c(OCCCOc2ccc(OCC(=O)O)cc2)ccc(C(C)=O)c1O [L-165041],effect on glutamate toxicity,"[1]; 1 nM to 50 μM, pretreated 24 h, glutamate 20 mM",failed to affect glutamate toxicity
same,concentrations inducing weak activity of PPARγ,[2],> 51 µM
same,EC50,[3],~500 nM
CC1=C(/C=C/C(C)=C\C=C\C(C)=C\C(=O)O)C(C)(C)CCC1 [9-cis retinoic acid],effect of adding 9-cis retinoic acid on neuroprotection by 15d-PGJ2,"[1]; 1 μM 9-cis retinoic acid with 15d-PGJ2, glutamate exposure",did not alter the neuroprotective effects
"CC1(COc2ccc(CC3SC(=O)NC3=O)cc2)CCCCC1 (stereo not shown) [ciglitazone, 5-[4-(1-methylcyclohexylmethoxy)benzyl]-thiazolidine-2,4-dione]",neuroprotective effects,[1]; concentrations up to 40 μM,did not have any neuroprotective effects
same,protection against glutamate toxicity,[1]; pretreatment at various concentrations,failed to protect
same,affinity for PPAR-γ,[4]; similar to that of 15d-PGJ2,low micromolar (μM) range
CCCCC[C@H](O)/C=C/[C@H]1C=CC(=O)[C@@H]1C/C=C\CCCC(=O)O [PGA2],neuroprotective effect of prostaglandins against glutamate toxicity,[1],neuroprotective effects
COC(=O)CCCCC/C=C1/C(=O)C=C[C@H]1CCCCCCc1ccc(C)cc1 [NEPP-11],decrease of infarct volume,[5],about 50%
CCCCC[C@H](O)/C=C/[C@H]1C=CC(=O)[C@@H]1CCCCCCC(=O)O [PGA1],neuroprotective effect of prostaglandins against glutamate toxicity,[1],neuroprotective effects
"Cc1cccc(Nc2cc(Cl)nc(SCC(=O)O)n2)c1C [WY 14,643]",effect at the highest concentration on glutamate toxicity,"[1]; highest concentration tested, glutamate 20 mM",enhanced glutamate toxicity
same,prevention of glutamate-induced cell death,"[1]; pretreatment 24 h, 1 to 40 μM, glutamate 20 mM",failed to prevent glutamate-induced cell death
same,EC50,[6],~1500 nM
CCCCC[C@H](O)/C=C/C1=C(C/C=C\CCCC(=O)O)C(=O)CC1 [PGB2],neuroprotective effect of prostaglandins against glutamate toxicity,[1],did not display any neuroprotective effects
"CC(C)(c1ccc(OCC2CO2)cc1)c1ccc(OCC2CO2)cc1 (stereo not shown) [BADGE, Bisphenol diglycidyl ether]",toxicity in the cell model,[1]; at concentrations close to Ki (100 μM),showed some toxicity
same,Ki,[4]; read-out: Ki value as PPARγ antagonist,100000 nM
